Measurements as given in patent US20030228281A1, “Use of mutant herpes viruses and anticancer agents in the treatment of cancer” (priority 2000, published 2003).

Legend:
G207 = experiment: Effect of HU and FUdR on G207 replication in HCT8 cells; type: cell-based, herpes simplex virus (HSV) type 1
Description: FIG. 4 depicts the results of experiments showing the effects of FUdR and HU on viral replication. HCT8 cells were infected with 2 pfu of G207 per cell. After adsorption of 1 hour at 37° C. inoculum was removed, cells were washed with PBS, and medium containing 10 nM FUdR or control medium without FUdR was added. At 8 hours pi, infected cells in presence and absence of FUdR were exposed to 1 mM HU. At 36 hours pi cells and supernatant were harvested and lysates were prepared by three cycles of freezing and thawing. Viral titers (A) and β-galactosidase activity (B) of the lysate were determined. All assays were performed in triplicates for each condition (avg ± SEM).
Vero cultures were carried for at least one subculture in E-MEM, 2 mM L-glutamine, 10% FCS. Cultures were plated at a density of 1×10^6 cells per well of 6-well plates and incubated at 37° C. in 5% CO2 in air in a humidified incubator. The following day, cultures were washed 2× with PBS, and serial dilutions of cell lysates (0.8 ml/well) were adsorbed onto triplicate dishes for 4 hours at 37° C. Cell lysates were prepared by 4 freeze-thaw cycles. Following adsorption, inoculum was removed, and cultures were overlaid with agar containing medium. Cultures were stained with neutral red 2 days post-inoculation, and plaque formation was assessed the next day.

[1] = system: β-galactosidase expression; experiment: β-galactosidase activity (lacZ reporter gene in G207) in infected cells; type: cell-based; conditions: HCT8, 2 pfu G207 per cell, 10 nM FUdR, 1 mM HU from 8 hours pi, 36 hours pi
Description: FIG. 2 depicts the results of experiments showing the influence of FUdR on β galactosidase expression following infection with G207. Cells (2×10^4) were plated in 24-well plates, and were infected with G207 at an MOI of 0.01 in presence (10 nM, oblique; 100 nM, black) and absence (white) of FUdR. At day 3 following infection, cells were lysed and total β-galactosidase activity of cell lysates was measured (A). Cell counts for each condition were determined in additional wells by trypan blue exclusion and specific activity was calculated by referring total activity to viable cell number (B). All assays were performed in triplicates (avg ± SEM). For lacZ staining 3×10^5 cells were plated onto 25 cm^2 flasks. Twelve hours later cells were infected with G207 in the presence and absence of FUdR under the same conditions as described above. At day 3 pi, cytospin slides were prepared and stained with X-gal for lacZ expression.
FIG. 4 depicts the results of experiments showing the effects of FUdR and HU on viral replication. […] Viral titers (A) and β-galactosidase activity (B) of the lysate were determined. […]
Activity of β-galactosidase was determined by monitoring the conversion of o-nitrophenyl galactoside (ONPG) to o-nitrophenol and galactose (β-Galactosidase Reporter Assay, Pierce, Rockford, Ill.). […] The reaction rate was determined by spectrophotometric measurement of o-nitrophenol at λ=405 nm. […]

NC(=O)NO [HU, hydroxyurea]
Viral titer, cells treated with HU and FUdR (G207; 1 mM HU and 10 nM FUdR, 36 hours pi): 2.1±0.5×10^4 pfu | Viral titer, cells treated with HU alone (G207; 1 mM HU from 8 hours pi, 36 hours pi): 1.9±0.5×10^4 pfu | Suppression of viral replication (G207; 1 mM HU, HCT8 cells): 90% | Effect on β-galactosidase expression [1]: neither FUdR nor HU had significant effects
